Measured values reported in article PMC11125181, “New Inhibitors of Bcr-Abl Based on 2,6,9-Trisubstituted Purine Scaffold Elicit Cytotoxicity in Chronic Myeloid Leukemia-Derived Cell Lines Sensitive and Resistant to TKIs” (Pharmaceutics, 2024).
Read-outs that look alike come from different tables or passages of the source.

Experiments:
recombinant Abl1 kinase = target: T1, recombinant Abl1 kinase (Homo sapiens, UniProt P00519); assay: Recombinant Abl1 kinase inhibition assay ([γ-33P]ATP, peptide substrate); type: biochemical
T1 construct: made in house
Method: The reactions were stopped by adding 5 µL of 3% aq. H3PO4. […] H3PO4, and air-dried.

KBM5 = assay: Cytotoxicity assay (resazurin) on KBM5; type: cell-based; details: Homo sapiens, read-out: GI50 KBM5
BV173 = assay: Cytotoxicity assay (resazurin) on BV173; type: cell-based; details: Homo sapiens, BV-173, 72 h
Method: (§1) Human cell lines KCL22 and BV173 were obtained from the German Collection of Microorganisms and Cell Cultures, K562 and HEK-293T from the European Collection of Authenticated Cell Cultures. KBM5 cell line was kindly gifted by Vladimír Divoký. Development of KCL22 subclones B8 (T315I, 100%), F4 (E255K, 100%), and B10 (Y253H, 50%) was reported previously. All cell lines were cultivated in humidified incubator at 37 °C and in 5% CO2 according to the provider’s instructions in appropriate media supplemented with 10% fetal bovine serum, penicillin (100 IU/mL), streptomycin (100 µg/mL), and glutamine (4 mM).
(§2) Cytotoxicity was determined using resazurin, an indicator dye to measure oxidation-reduction reactions occurring in the mitochondria of live cells. The cells were seeded into 96-well plates and treated with compounds for 72 h (six different doses of each, in triplicate). After treatment, resazurin (Merck, Darmstadt, Germany) solution was added for 4 h, and the fluorescence of formed resorufin corresponding to live cell quantity was measured at 544 nm/590 nm (excitation/emission) using a Fluoroskan Ascent microplate reader (Labsystems, Vantaa, Finland).

K562 = assay: Cytotoxicity assay (resazurin) on K562; type: cell-based; details: Homo sapiens, 72 h
Method: as §1, §2

HEK-293T = assay: Cytotoxicity assay (resazurin) on non-neoplastic HEK-293T; type: cell-based; details: Homo sapiens, 72 h, non-neoplastic cells
Method: as §1, §2

[1] = system: KCL22 cells containing Bcr-Abl^WT; assay: Cytotoxicity assay (resazurin) on KCL22 WT; type: cell-based, human
KCL22 B8 (T315I, 100%) = assay: Cytotoxicity assay (resazurin) on KCL22 subclone B8; type: cell-based; details: Homo sapiens, KCL-22, read-out: GI50 KCL22 B8 T315I (100%), 72 h
Method: as §1, §2

KCL22 F4 (E255K, 100%) = assay: Cytotoxicity assay (resazurin) on KCL22 subclone F4; type: cell-based; details: Homo sapiens, KCL-22, read-out: GI50 KCL22 F4 E255K (100%), 72 h
Method: as §1, §2

KCL22 B10 (Y253H, 50%) = assay: Cytotoxicity assay (resazurin) on KCL22 subclone B10; type: cell-based; details: Homo sapiens, KCL-22, read-out: GI50 KCL22 B10 Y253H (50%), 72 h
Method: as §1, §2

[2] = system: KCL22 B8 cell line containing Bcr-Abl^T315I; assay: Cell cycle flow cytometry, KCL22 B8; type: cell-based, human; details: 24 h treatment
Method: The cell lines were seeded into 96-well plates and then treated with compounds for 24 h. After treatment, the cells were directly stained by adding 5 × staining solution (17 mM trisodium citrate dihydrate, 0.5% IGEPAL® CA-630, 7.5 mM spermine tetrahydrochloride, 2.5 mM Tris; pH 7.6 containing 50 μg/mL propidium iodide). […] Cell cycle distribution was analyzed using ModFit LT 5.0.9 (Verity Software House, Augusta, ME, USA).

[3] = from the IC50 of Table S1, read-out: pIC50 (Table S1) (converted)
[4] = recombinant Abl1, 1 µM ATP, at least three independent experiments, read-out: IC50 Abl
[5] = Homo sapiens, KCL-22, 72 h, read-out: GI50 KCL22 WT
[6] = as listed in Table S1, Bcr-Abl WT, read-out: IC50 (Table S1)

T1 sequence (P00519 whole entry): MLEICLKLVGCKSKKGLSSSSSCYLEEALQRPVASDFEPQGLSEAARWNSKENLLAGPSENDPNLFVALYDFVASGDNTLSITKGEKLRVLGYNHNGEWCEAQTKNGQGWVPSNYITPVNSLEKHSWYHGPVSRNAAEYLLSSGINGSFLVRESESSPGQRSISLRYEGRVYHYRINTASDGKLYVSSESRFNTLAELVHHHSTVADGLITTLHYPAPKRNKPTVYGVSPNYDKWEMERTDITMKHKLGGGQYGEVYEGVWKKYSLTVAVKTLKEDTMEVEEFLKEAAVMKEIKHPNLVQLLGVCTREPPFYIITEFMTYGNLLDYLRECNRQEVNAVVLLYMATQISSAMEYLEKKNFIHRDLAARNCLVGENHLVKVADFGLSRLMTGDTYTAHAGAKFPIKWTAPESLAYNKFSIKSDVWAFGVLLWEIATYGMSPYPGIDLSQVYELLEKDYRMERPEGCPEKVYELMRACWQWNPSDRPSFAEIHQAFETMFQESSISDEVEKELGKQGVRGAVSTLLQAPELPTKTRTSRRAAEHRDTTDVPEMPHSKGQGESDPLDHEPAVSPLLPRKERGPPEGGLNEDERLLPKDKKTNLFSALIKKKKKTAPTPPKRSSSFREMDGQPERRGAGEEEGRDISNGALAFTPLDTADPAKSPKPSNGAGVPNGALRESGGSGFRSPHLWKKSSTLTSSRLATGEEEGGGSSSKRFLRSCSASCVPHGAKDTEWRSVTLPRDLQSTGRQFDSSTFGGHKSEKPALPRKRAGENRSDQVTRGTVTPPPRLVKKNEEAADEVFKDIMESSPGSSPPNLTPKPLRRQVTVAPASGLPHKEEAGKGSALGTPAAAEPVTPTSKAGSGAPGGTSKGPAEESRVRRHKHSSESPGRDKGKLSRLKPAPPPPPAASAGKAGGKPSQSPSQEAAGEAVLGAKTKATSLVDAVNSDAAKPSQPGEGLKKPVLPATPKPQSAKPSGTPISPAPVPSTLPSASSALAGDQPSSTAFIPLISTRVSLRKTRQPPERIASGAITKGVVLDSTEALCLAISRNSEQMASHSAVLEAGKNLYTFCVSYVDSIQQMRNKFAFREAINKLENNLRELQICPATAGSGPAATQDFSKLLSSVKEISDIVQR

Compound	IC50 (recombinant Abl1 kinase; [3])	IC50 (recombinant Abl1 kinase; [4])	GI50 (KBM5; KBM5, 72 h, resazurin assay)	GI50 (BV173)	GI50 (K562)	GI50 (HEK-293T)	GI50 [1, 5]	GI50 (KCL22 B8 (T315I, 100%))	GI50 (KCL22 F4 (E255K, 100%))	GI50 (KCL22 B10 (Y253H, 50%))	melting point	IC50 (recombinant Abl1 kinase; [6])	GI50 (KBM5; KBM5, 72 h)	GI50 ([1]; 72 h, read-out: GI50 KCL22 WT)	GI50 ([1]; read-out: GI50 KCL22 WT, 72 h)	Effect on cell cycle distribution, KCL22 B8 (T315I) [2]
CN1CCN(Cc2ccc(Nc3nc(Nc4cccc(F)c4)c4ncn(CC5CC5)c4n3)cc2)CC1 [Compound 7a, 9-(Cyclopropylmethyl)-N^6-(3-fluorophenyl)-N^2-(4-((4-methylpiperazin-1-yl)methyl)phenyl)-9H-purine-2,6-diamine]	0.18 µM	0.18 ± 0.068 µM	4.4 ± 0.8 µM	3.3 ± 1.6 µM	1.5 ± 0.1 µM	6.3 ± 0.7 µM	8.1 ± 0.5 µM	13.8 ± 2 µM	11.1 ± 0.5 µM	7.4 ± 0.6 µM						
CN1CCN(Cc2ccc(Nc3nc(Nc4ccc(F)c(F)c4)c4ncn(CC5CC5)c4n3)cc2)CC1 [Compound 7b, 9-(Cyclopropylmethyl)-N^6-(3,4-difluorophenyl)-N^2-(4-((4-methylpiperazin-1-yl)methyl)phenyl)-9H-purine-2,6-diamine]	0.22 µM	0.225 ± 0.042 µM	4.2 ± 0.2 µM	1.9 ± 0.1 µM	1.4 ± 0.2 µM	6.3 ± 1.2 µM	8.5 ± 1.4 µM	11.4 ± 3.2 µM	10.1 ± 1.2 µM	6.6 ± 0.2 µM						
OCCN1CCN(c2ccc(Nc3nc(Nc4ccccc4)c4ncn(CC5CC5)c4n3)cc2)CC1 [Compound 11a, 2-(4-(4-((9-(Cyclopropylmethyl)-6-(phenylamino)-9H-purin-2-yl)amino)phenyl)piperazin-1-yl)ethan-1-ol]	0.037 µM	0.037 ± 0.012 µM	3 ± 0.1 µM	3 ± 0.6 µM	1.2 ± 0.3 µM	9.5 ± 0.7 µM	5.7 ± 0.8 µM	> 20 µM	12.7 ± 0.1 µM	6.3 ± 0.4 µM						
OCCN1CCN(c2ccc(Nc3nc(Nc4ccc(F)c(F)c4)c4ncn(CC5CC5)c4n3)cc2)CC1 [Compound 11c, 2-(4-(4-((9-(Cyclopropylmethyl)-6-((3,4-difluorophenyl)amino)-9H-purin-2-yl)amino)phenyl)piperazin-1-yl)ethan-1-ol]	0.019 µM	0.02 ± 0.001 µM	2.1 ± 0.3 µM	1.7 ± 0.1 µM	0.9 ± 0.2 µM	5 ± 0.9 µM	2.9 µM	6.4 ± 0.4 µM	4.1 ± 0.2 µM	4.1 ± 0.2 µM						
CC(C)CCn1cnc2c(Nc3ccccc3)nc(Nc3ccc(N4CCN(CCO)CC4)cc3)nc21 [Compound 11d, 2-(4-(4-((9-Isopentyl-6-(phenylamino)-9H-purin-2-yl)amino)phenyl)piperazin-1-yl)ethan-1-ol]	1.24 µM	1.24 ± 0.22 µM	5.6 ± 0.4 µM	3.6 ± 0.7 µM	6.3 ± 0.7 µM	5.7 ± 1.2 µM	8.4 ± 0.3 µM	7.8 ± 1.3 µM	6.6 ± 0.6 µM	7.8 ± 0.5 µM	88.6 to 89.2 °C					
CC(C)CCn1cnc2c(Nc3ccc(F)c(F)c3)nc(Nc3ccc(N4CCN(CCO)CC4)cc3)nc21 [Compound 11f, 2-(4-(4-((6-((3,4-Difluorophenyl)amino)-9-isopentyl-9H-purin-2-yl)amino)phenyl)piperazin-1-yl)ethan-1-ol]	1.76 µM	1.76 ± 0.74 µM	5.2 ± 0.1 µM	4.5 ± 0.1 µM	5.9 ± 0.6 µM	5.2 ± 0.7 µM	6.5 ± 0.2 µM	7.2 ± 1 µM	5.7 ± 0.1 µM	7 ± 0.5 µM						
CCCCCCn1cnc2c(Nc3ccccc3)nc(Nc3ccc(N4CCN(CCO)CC4)cc3)nc21 [Compound 11g, 2-(4-(4-((9-Hexyl-6-(phenylamino)-9H-purin-2-yl)amino)phenyl)piperazin-1-yl)ethan-1-ol]	0.83 µM	0.834 ± 0.447 µM	5.4 ± 0.2 µM	5.2 ± 0.2 µM	4.5 ± 1.4 µM	8.6 ± 3.2 µM	15.1 ± 2.2 µM	10.4 ± 1.8 µM	8.5 ± 0.9 µM	7.7 ± 0.2 µM		0.83 µM				
CCCCCCn1cnc2c(Nc3cccc(F)c3)nc(Nc3ccc(N4CCN(CCO)CC4)cc3)nc21 [Compound 11h, 2-(4-(4-((6-((3-Fluorophenyl)amino)-9-hexyl-9H-purin-2-yl)amino)phenyl)piperazin-1-yl)ethan-1-ol]	0.67 µM	0.674 ± 0.069 µM	5.8 ± 0.2 µM	5.2 ± 0.5 µM	4.8 ± 0.4 µM	6 ± 1 µM	9.6 ± 1 µM	9.5 ± 1.5 µM	8.1 ± 1.2 µM	5.9 ± 0.7 µM		0.67 µM				
CCCCCCn1cnc2c(Nc3ccc(F)c(F)c3)nc(Nc3ccc(N4CCN(CCO)CC4)cc3)nc21 [Compound 11i, 2-(4-(4-((6-((3,4-Difluorophenyl)amino)-9-hexyl-9H-purin-2-yl)amino)phenyl)piperazin-1-yl)ethan-1-ol]	1.68 µM	1.68 ± 0.01 µM	5.6 ± 0.2 µM	4.8 ± 0.3 µM	3.1 ± 0.6 µM	> 20 µM	> 20 µM	> 20 µM	> 20 µM	> 20 µM	135.1 to 137.1 °C					
CN1CCN(c2ccc(Nc3nc(N)c4ncn(CC5CC5)c4n3)cc2)CC1 [Compound 13a, 9-(Cyclopropylmethyl)-N^2-(4-(4-methylpiperazin-1-yl)phenyl)-9H-purine-2,6-diamine]	3.95 µM	3.96 ± 0.51 µM	> 100 µM	> 20 µM	> 100 µM	> 100 µM	> 100 µM	> 100 µM	> 100 µM	> 100 µM	133 to 134 °C	3.95 µM				
CN1CCN(c2ccc(Nc3nc(NC4CCCCC4)c4ncn(CC5CC5)c4n3)cc2)CC1 [Compound 13b, N^6-cyclohexyl-9-(cyclopropylmethyl)-N^2-(4-(4-methylpiperazin-1-yl)phenyl)-9H-purine-2,6-diamine]	11 µM	11.1 ± 3.31 µM	> 20 µM	> 20 µM	4.8 ± 0.3 µM	> 20 µM	> 20 µM	> 20 µM	> 20 µM	> 20 µM		11.1 µM				
CN1CCN(c2ccc(Nc3nc(NCc4ccccc4)c4ncn(CC5CC5)c4n3)cc2)CC1 [Compound 13c, N^6-benzyl-9-(cyclopropylmethyl)-N^2-(4-(4-methylpiperazin-1-yl)phenyl)-9H-purine-2,6-diamine]	0.839 µM	0.845 ± 0.066 µM	> 20 µM	11.9 ± 1.4 µM	5.7 ± 0.6 µM	16.7 ± 1.1 µM	> 20 µM	> 20 µM	> 20 µM	> 20 µM	152 to 154 °C	0.84 µM				
CN1CCN(c2ccc(Nc3nc(Nc4ccccc4)c4ncn(CC5CC5)c4n3)cc2)CC1 [Compound I, reference compound]				2.2 ± 0.2 µM	1.5 ± 0.1 µM	7.5 ± 1.4 µM		17.3 ± 2 µM	5.7 ± 0.3 µM	5.2 ± 0.2 µM			2.7 ± 0.1 µM			
CN1CCN(c2ccc(Nc3nc(Nc4cccc(F)c4)c4ncn(CC5CC5)c4n3)cc2)CC1 [II, reference compound]				5.3 ± 0.2 µM	0.8 ± 0.1 µM	5.6 ± 0.6 µM		> 20 µM	> 20 µM	8.8 ± 0.4 µM			5.1 ± 0.5 µM			
CN1CCN(c2ccc(Nc3nc(Nc4ccc(F)c(F)c4)c4ncn(CC5CC5)c4n3)cc2)CC1 [III, reference compound]				1.4 ± 0.1 µM	1.2 ± 0.4 µM	5.3 ± 0.3 µM		> 20 µM	> 20 µM	3.4 ± 0.4 µM			1.1 ± 0.8 µM			
Cc1ccc(NC(=O)c2ccc(CN3CCN(C)CC3)cc2)cc1Nc1nccc(-c2cccnc2)n1 [Imatinib, reference compound]				0.199 ± 0.061 µM	0.231 ± 0.001 µM	> 10 µM		> 20 µM	9.6 ± 0.5 µM	> 20 µM						
Cc1cn(-c2cc(NC(=O)c3ccc(C)c(Nc4nccc(-c5cccnc5)n4)c3)cc(C(F)(F)F)c2)cn1 [Nilotinib, reference compound]			0.019 ± 0.009 µM	0.003 µM	0.025 ± 0.01 µM	> 10 µM		> 20 µM	0.789 ± 0.081 µM	1.4 ± 0.3 µM				0.047 ± 0.008 µM	0.019 µM	no effect
